Reference: ChEMBL document CHEMBL1201862, “PubChem BioAssay data set” (2004)
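Briefly, cells in 96-well plates were exposed to five compound concentrations for 48 h, and endpoints were estimated by linear interpolation. Abbreviation: GI50, concentration required for 50% inhibition of growth.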 The source made the active and inactive calls. Rule as the data show it: active = GI50 up to about 1.1 µM and inactive = higher.

Assays:
Assay in all cases: NCI anticancer screen, dose series, 48 h
[1] = test system: LXFL 529
[2] = test system: 786-0
[3] = test system: A498
[4] = test system: A549
[5] = test system: CAKI-1
[6] = test system: CCRF-CEM
[7] = test system: COLO 205
[8] = test system: DLD-1
[9] = test system: DMS-114
[10] = test system: DMS-273
[11] = test system: EKVX
[12] = test system: HCC 2998
[13] = test system: HCT-116
[14] = test system: HCT-15
[15] = test system: HL-60
[16] = test system: HOP-62
[17] = test system: HOP-92
[18] = test system: HT-29
[19] = test system: IGROV-1
[20] = test system: K562
[21] = test system: KM12
[22] = test system: LOX IMVI
[23] = test system: M14
[24] = test system: M19-MEL
[25] = test system: MOLT-4
[26] = test system: Malme-3M
[27] = test system: NCI-H23
[28] = test system: NCI-H460
[29] = test system: NCI-H522
[30] = test system: OVCAR-3
[31] = test system: OVCAR-4
[32] = test system: OVCAR-8
[33] = test system: RPMI-8226
[34] = test system: RXF 393
[35] = test system: SF-268
[36] = test system: SF-295
[37] = test system: SF-539
[38] = test system: SK-MEL-28
[39] = test system: SK-MEL-2
[40] = test system: SK-MEL-5
[41] = test system: SK-OV-3
[42] = test system: SN12C
[43] = test system: SNB-19
[44] = test system: SNB-75
[45] = test system: SNB-78
[46] = test system: SW-620
[47] = test system: TK-10
[48] = test system: U-251
[49] = test system: UACC-257
[50] = test system: UACC-62
[51] = test system: UO-31
[52] = test system: XF498
[53] = test system: ACHN
[54] = test system: HOP-18
[55] = test system: NCI-H226
[56] = test system: OVCAR-5

CNc1nc(N(C)C)nc(N(C)C)n1 [PENTAMETHYL MELAMINE]
GI50 [1]: > 100 µM (inactive)

COc1ccc2nccc(C3=CCC4CCN(C(=O)c5ccccc5)C3C4)c2c1 (stereo not drawn)
GI50 [2]: > 100 µM (inactive) | GI50 [3]: > 100 µM (inactive) | GI50 [4]: > 100 µM (inactive) | GI50 [5]: > 100 µM (inactive) | GI50 [6]: 99.8 µM (inactive) | GI50 [7]: > 100 µM (inactive) | GI50 [8]: > 100 µM (inactive) | GI50 [9]: > 100 µM (inactive) | GI50 [10]: > 100 µM (inactive) | GI50 [11]: > 100 µM (inactive) | GI50 [12]: > 100 µM (inactive) | GI50 [13]: > 100 µM (inactive) | GI50 [14]: > 100 µM | GI50 [15]: 51.6 µM (inactive) | GI50 [16]: > 100 µM (inactive) | GI50 [17]: > 100 µM (inactive) | GI50 [18]: > 100 µM (inactive) | GI50 [19]: > 100 µM (inactive) | GI50 [20]: 74.5 µM (inactive) | GI50 [21]: > 100 µM (inactive) | GI50 [22]: > 100 µM (inactive) | GI50 [1]: > 100 µM (inactive) | GI50 [23]: > 100 µM (inactive) | GI50 [24]: > 100 µM (inactive) | GI50 [25]: 44.9 µM (inactive) | GI50 [26]: > 100 µM (inactive) | GI50 [27]: > 100 µM (inactive) | GI50 [28]: > 100 µM (inactive) | GI50 [29]: > 100 µM (inactive) | GI50 [30]: 86.9 µM (inactive) | GI50 [31]: 81.8 µM (inactive) | GI50 [32]: > 100 µM (inactive) | GI50 [33]: 46.1 µM (inactive) | GI50 [34]: > 100 µM (inactive) | GI50 [35]: > 100 µM (inactive) | GI50 [36]: > 100 µM (inactive) | GI50 [37]: > 100 µM (inactive) | GI50 [38]: > 100 µM (inactive) | GI50 [39]: > 100 µM (inactive) | GI50 [40]: 93.3 µM (inactive) | GI50 [41]: > 100 µM (inactive) | GI50 [42]: > 100 µM (inactive) | GI50 [43]: > 100 µM (inactive) | GI50 [44]: 93.5 µM (inactive) | GI50 [45]: > 100 µM (inactive) | GI50 [46]: > 100 µM (inactive) | GI50 [47]: > 100 µM (inactive) | GI50 [48]: > 100 µM (inactive) | GI50 [49]: > 100 µM (inactive) | GI50 [50]: > 100 µM (inactive) | GI50 [51]: 40.7 µM (inactive) | GI50 [52]: 92 µM (inactive)

COc1cc(C2C(Cl)C(=O)N2NC(=O)c2ccc(NC(C)=O)cc2)cc(OC)c1OC (stereo not drawn)
GI50 [4]: > 100 µM (inactive) | GI50 [53]: > 10 µM (inactive) | GI50 [6]: > 100 µM (inactive) | GI50 [7]: > 100 µM (inactive) | GI50 [8]: > 100 µM (inactive) | GI50 [13]: > 100 µM (inactive) | GI50 [15]: > 100 µM (inactive) | GI50 [54]: > 100 µM (inactive) | GI50 [16]: > 100 µM (inactive) | GI50 [17]: > 100 µM (inactive) | GI50 [18]: > 100 µM (inactive) | GI50 [19]: > 100 µM (inactive) | GI50 [20]: > 100 µM (inactive) | GI50 [21]: > 100 µM (inactive) | GI50 [1]: > 100 µM (inactive) | GI50 [24]: > 100 µM (inactive) | GI50 [25]: > 100 µM (inactive) | GI50 [26]: > 100 µM (inactive) | GI50 [55]: > 100 µM (inactive) | GI50 [27]: > 100 µM (inactive) | GI50 [28]: > 100 µM (inactive) | GI50 [29]: > 100 µM (inactive) | GI50 [30]: > 100 µM (inactive) | GI50 [56]: > 100 µM (inactive) | GI50 [33]: > 100 µM (inactive) | GI50 [35]: > 100 µM (inactive) | GI50 [36]: > 100 µM (inactive) | GI50 [37]: > 100 µM (inactive) | GI50 [38]: > 100 µM (inactive) | GI50 [39]: > 100 µM (inactive) | GI50 [40]: > 100 µM (inactive) | GI50 [41]: > 100 µM (inactive) | GI50 [43]: > 100 µM (inactive) | GI50 [44]: > 100 µM (inactive) | GI50 [46]: > 100 µM (inactive) | GI50 [47]: > 100 µM (inactive) | GI50 [48]: > 100 µM (inactive) | GI50 [49]: > 100 µM (inactive) | GI50 [50]: > 100 µM (inactive) | GI50 [51]: > 100 µM (inactive)

CCCCNC(=S)Nn1c(-c2ccccc2)nc2ccccc2c1=O
GI50 [2]: > 100 µM (inactive) | GI50 [3]: > 100 µM (inactive) | GI50 [4]: > 100 µM (inactive) | GI50 [53]: > 100 µM (inactive) | GI50 [5]: > 100 µM (inactive) | GI50 [6]: 38.3 µM (inactive) | GI50 [7]: > 100 µM (inactive) | GI50 [8]: > 100 µM (inactive) | GI50 [9]: 87.3 µM (inactive) | GI50 [10]: > 100 µM (inactive) | GI50 [13]: > 100 µM (inactive) | GI50 [14]: > 100 µM | GI50 [15]: 25.7 µM (inactive) | GI50 [54]: > 100 µM (inactive) | GI50 [16]: > 100 µM (inactive) | GI50 [17]: 67.3 µM (inactive) | GI50 [18]: 68.5 µM (inactive) | GI50 [19]: > 100 µM (inactive) | GI50 [20]: 67.1 µM (inactive) | GI50 [21]: > 100 µM (inactive) | GI50 [22]: 74.1 µM (inactive) | GI50 [1]: > 100 µM (inactive) | GI50 [23]: > 100 µM (inactive) | GI50 [24]: 92.5 µM (inactive) | GI50 [25]: 49.9 µM (inactive) | GI50 [26]: > 100 µM (inactive) | GI50 [55]: > 100 µM (inactive) | GI50 [27]: > 100 µM (inactive) | GI50 [28]: > 100 µM (inactive) | GI50 [29]: 86.3 µM (inactive) | GI50 [31]: > 100 µM (inactive) | GI50 [56]: > 100 µM (inactive) | GI50 [32]: > 100 µM (inactive) | GI50 [33]: > 100 µM (inactive) | GI50 [34]: 24 µM (inactive) | GI50 [35]: > 100 µM (inactive) | GI50 [36]: > 100 µM (inactive) | GI50 [37]: > 100 µM (inactive) | GI50 [38]: 9.68 µM (inactive) | GI50 [39]: > 100 µM (inactive) | GI50 [40]: > 100 µM (inactive) | GI50 [41]: > 100 µM (inactive) | GI50 [42]: > 100 µM (inactive) | GI50 [44]: 41.7 µM (inactive) | GI50 [46]: > 100 µM (inactive) | GI50 [47]: > 100 µM (inactive) | GI50 [48]: > 100 µM (inactive) | GI50 [49]: > 100 µM (inactive) | GI50 [50]: > 100 µM (inactive) | GI50 [51]: 76.9 µM (inactive)
